Test results as given in patent US12213993B2, “Coated medicinal clay compositions, pharmaceutical compositions, and delivery of cation sources and methods of use thereof” (priority 2021, dated 2025).

Experiment: Calculation of chloride binding by cations of clay/silver wound dressing in wound exudate
Format: physicochemical
Conditions: without the chelation of chloride provided by the medicinal clay
From the text: Medicinal clay in a pharmaceutical composition was applied to an exemplary wound dressing, which incorporated an additional therapeutic cation, silver. Wound exudate is known to contain anions, which can interfere with the medicinal qualities of the medicinal clay and additional therapeutic agents when the medicinal clay comes into contact with the moisture of the wound exudate (a water source). Wound exudate is variable patient to patient, so an average amount of 101 mEq/L chloride anions was used. The medicinal clay of Example 1 was analyzed for cations, which may interact with the chloride in wound exudate. Table 5 describes an approximate amount of ions present the exemplary clay composition of the wound dressing (4×4 inch pad), silver added into the wound dressing for delivery with the clay, and wound exudate, as well as the amount of each in the exemplary wound dressing and wound exudate (grams). […] A skilled artisan will appreciate from the disclosure of the calculations that such a minimum effective amount can vary based on an exudate sample. Accordingly, the calculated atoms and weight (g) in Table 5 can have a variation of about ±30%, ±25%, ±20%, ±15%, or ±10%. The exemplary wound dressings comprise from about 0.1 to about 2.5 grams of the clay composition, preferably from about 0.2 to about 0.8 grams of the clay composition. […]
In the case of `[Ag+]` [silver], the “silver in the dressing that chloride could bind prior to release” value is reported as 72%.

Experiment: not given
Conditions: ion pair with chloride; cited from earlier work
In the case of `[Cl][Ag]` [AgCl], the “Lattice Energy” value is listed as 187 kcal/mol.
In the case of `[Cl][Al]([Cl])[Cl]` [AlCl3], the “Lattice Energy” value is given as 1228 kcal/mol.
For `[Ca+2].[Cl-].[Cl-]` [CaCl2], the “Lattice Energy” value is listed as 542.1 kcal/mol.
In the case of `[Cl][Fe][Cl]` [FeCl2], the “Lattice Energy” value is given as 614 kcal/mol.
For `[Cl][Fe]([Cl])[Cl]` [FeCl3], the “Lattice Energy” value is given as 1282 kcal/mol.
For `[Cl-].[K+]` [KCl], the “Lattice Energy” value is given as 168 kcal/mol.
For `[Cl-].[Cl-].[Mg+2]` [MgCl2], the “Lattice Energy” value is listed as 592 kcal/mol.
For `[Cl][Mn][Cl]` [MnCl2], the “Lattice Energy” value is listed as 599.9 kcal/mol.
In the case of `[Cl-].[Na+]` [NaCl], the “Lattice Energy” value is listed as 184 kcal/mol.
